For two compounds, EC50 and IFNβ secretion results are on record in patent US12679849B2, “Macrocyclic compounds as STING agonists” (LUPIN LIMITED, priority 2019, dated 2026).

One experiment concerns the target T1, Human STING (Homo sapiens, UniProt Q86WV6, G230A/H232R/R293Q/R71H).
T1 construct: using human THP1-Blue™ ISG SEAP based reporter cell line (Invivogen); host or cells: THP1-Blue ISG (human monocytic THP-1 derived SEAP reporter line)
Description: Stimulation of human STING signalling in THP1-Blue ISG SEAP reporter cell line. The class given is cell-based. The settings on record: THP1-Blue ISG cells, 18-20 hours incubation. The procedure:
Stimulation of Human STING Signalling in THP1 Cell Line
Compounds were tested for their STING activation potential using human THP1-Blue™ ISG SEAP based reporter cell line (Invivogen). Briefly, THP1-Blue ISG cells (100,000 cells/well) in 96 well plate were treated with varying concentrations of test and reference compounds and incubated at 37° C. with 5% CO2 for 18-20 hours. The control untreated cells were also set up. Post incubation, the cell supernatant was tested for SEAP (Secreted Embryonic Alkaline Phosphatase) activity using the QuantiBlue™ substrate reagent (Invivogen). The formation of blue coloured product was quantified by measuring absorbance at wavelength of 620 nm using PheraStar/Tecan reader. The average of duplicate readouts for each data point was plotted in GraphPad prism 6 against the concentration of test or reference compound to calculate EC50 value. The fold of SEAP induction or increase in luminescence at different data points was estimated against the un-stimulated cell control set.

In the next experiment the test system is IFNβ. As to the kind of experiment: Cytokine (IFNβ) secretion in serum samples from CT-26 tumor bearing BALB/c mice. The class given is in vivo, mouse. The settings on record: serum of CT-26 tumor-bearing BALB/c mice, 0.5 mg/kg, 3.5 h. How it is done: Quantification of the Cytokine Secretion in Serum Samples from the CT-26 Tumor Bearing BALB/c Mice
CT-26 tumor-bearing animals were administered with test compounds at the dose of 0.5 mg/kg, in a dose-volume of 5 ml/kg. Serum samples were collected at designated time points (3.5 h) and frozen at −80° C. till further estimation. Mouse serum samples were diluted appropriately with dilution buffer before estimation of IFNβ utilizing commercially available kits (VeriKine Mouse IFN Beta ELISA, PBL assay science, Catalog No 42400-2). Raw data values were corrected with the dilution factor and finally expressed in pg/mL.

pEC50: −log10 of the molar value.

T1 sequence (Q86WV6 whole entry R71H/G230A/H232R/R293Q): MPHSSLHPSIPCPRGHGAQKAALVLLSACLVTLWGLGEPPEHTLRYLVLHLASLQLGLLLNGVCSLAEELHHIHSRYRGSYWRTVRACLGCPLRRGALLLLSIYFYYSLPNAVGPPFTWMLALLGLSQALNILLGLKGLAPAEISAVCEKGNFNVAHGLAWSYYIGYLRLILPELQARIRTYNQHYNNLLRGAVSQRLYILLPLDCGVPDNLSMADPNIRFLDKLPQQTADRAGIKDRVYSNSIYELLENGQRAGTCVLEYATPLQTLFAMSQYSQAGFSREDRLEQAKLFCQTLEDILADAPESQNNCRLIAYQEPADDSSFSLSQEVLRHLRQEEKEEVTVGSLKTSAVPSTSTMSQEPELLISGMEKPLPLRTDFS

One may read the pEC50 as the EC50 on a negative log10 scale, so that one unit is a factor of ten. With `CCn1nc(C)cc1C(=O)Nc1nc2cc(C(N)=O)cc3c2n1C/C=C/Cn1c(NC(=O)c2cc(C)nn2CC)nc2cc(C(N)=O)cc(c21)OCC(N1C2CCC1COC2)CO3` [Compound 2, (E)-8-(3-oxa-8-azabicyclo[3.2.1]octan-8-yl)-1,15-bis(1-ethyl-3-methyl-1H-pyrazole-5-carboxamido)-8,9,16,19-tetrahydro-7H-6,10-dioxa-2,14,15a,19a-tetraazacyclopentadeca[3,2,1-cd:8,9,10-c′d′]diindene-4,12-dicarboxamide], the negative-log EC50 (pEC50) on Human STING was 8.00 to 9.00. Besides, the IFNβ secretion in the experiment on IFNβ was determined as 28305 pg/mL.
As for `CCn1nc(C)cc1C(=O)Nc1nc2cc(C(N)=O)cc3c2n1C/C=C/Cn1c(NC(=O)c2cc(C)nn2CC)nc2cc(C(N)=O)cc(c21)OCC(N1CC2CCC(C1)O2)CO3` [Compound 1, (E)-8-(8-oxa-3-azabicyclo[3.2.1]octan-3-yl)-1,15-bis(1-ethyl-3-methyl-1H-pyrazole-5-carboxamido)-8,9,16,19-tetrahydro-7H-6,10-dioxa-2,14,15a,19a-tetraazacyclopentadeca[3,2,1-cd:8,9,10-c′d′]diindene-4,12-dicarboxamide], at Human STING, the pEC50 was 8.00 to 9.00. In the experiment on IFNβ, this compound displayed an IFNβ secretion of 4344 pg/mL.
